Data reported in paper PMC4597782 (Nature, 2015).
Each block holds one compound with its values, some of them ahead of it.

Assays:
mGluR3 [1] = target: T1, mGluR3 (Rattus norvegicus, UniProt P31422); assay type: biochemical; details: for average active state lifetime: 2 mM Ca2+ or 100 nM glutamate
mGluR2 [2] = target: T2, mGluR2 (Rattus norvegicus, UniProt P31421); assay type: biochemical
mGluR2 [3] = target: T2, mGluR2; assay type: cell-based; details: normalized to response to 1 mM glutamate
mGluR3 [4] = target: T1, mGluR3; assay type: cell-based; details: read-out: EC50 of glutamate-dependent decrease in ensemble FRET; HEK293T cells
[5] = target: mGluR2 WT/YADA heterodimer (Rattus norvegicus, UniProt P31421, D295A/Y216A); assay: smFRET of mGluR2 WT/YADA heterodimers; assay type: biochemical; details: near-saturating glutamate for the WT subunit
[6] = target: mGluR2-YADA (Y216A and D295A) (Rattus norvegicus, UniProt P31421, D295A/Y216A); assay: smFRET of glutamate-insensitive mutant mGluR2-YADA; assay type: biochemical; details: 50 μM or 1 mM glutamate
Sequence of mGluR2-YADA (Y216A and D295A) (P31421 19-872 Y216A/D295A): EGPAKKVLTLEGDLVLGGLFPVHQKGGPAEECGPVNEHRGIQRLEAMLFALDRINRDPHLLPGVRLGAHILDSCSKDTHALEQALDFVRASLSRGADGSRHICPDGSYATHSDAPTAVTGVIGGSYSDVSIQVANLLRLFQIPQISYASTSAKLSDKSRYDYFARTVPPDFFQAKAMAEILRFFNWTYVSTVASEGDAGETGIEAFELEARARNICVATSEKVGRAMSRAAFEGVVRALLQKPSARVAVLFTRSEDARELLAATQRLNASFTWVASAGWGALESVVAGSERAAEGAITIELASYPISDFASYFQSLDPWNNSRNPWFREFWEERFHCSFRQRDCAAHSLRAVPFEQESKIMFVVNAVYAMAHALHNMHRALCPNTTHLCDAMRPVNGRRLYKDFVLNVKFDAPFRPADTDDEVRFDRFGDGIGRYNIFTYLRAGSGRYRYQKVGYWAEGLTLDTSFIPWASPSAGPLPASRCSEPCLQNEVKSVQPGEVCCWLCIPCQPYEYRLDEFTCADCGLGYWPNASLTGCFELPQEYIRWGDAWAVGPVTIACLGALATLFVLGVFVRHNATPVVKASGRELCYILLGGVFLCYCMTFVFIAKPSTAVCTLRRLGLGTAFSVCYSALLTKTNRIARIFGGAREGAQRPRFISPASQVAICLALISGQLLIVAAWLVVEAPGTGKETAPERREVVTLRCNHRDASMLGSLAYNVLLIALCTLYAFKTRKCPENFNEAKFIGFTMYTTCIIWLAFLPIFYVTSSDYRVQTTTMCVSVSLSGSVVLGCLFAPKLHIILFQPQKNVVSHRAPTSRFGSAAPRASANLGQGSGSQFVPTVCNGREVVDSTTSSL
Sequence of mGluR2-YADA (Y216A and D295A) (P31421 19-872 Y216A/D295A): as above

T2 sequence (P31421 19-872): as the sequence (P31421 19-872 Y216A/D295A) above, with A198Y, A277D counted along it
T2 sequence (P31421 19-872): as the sequence (P31421 19-872 Y216A/D295A) above, with A198Y, A277D counted along it
T1 sequence (P31422 23-879): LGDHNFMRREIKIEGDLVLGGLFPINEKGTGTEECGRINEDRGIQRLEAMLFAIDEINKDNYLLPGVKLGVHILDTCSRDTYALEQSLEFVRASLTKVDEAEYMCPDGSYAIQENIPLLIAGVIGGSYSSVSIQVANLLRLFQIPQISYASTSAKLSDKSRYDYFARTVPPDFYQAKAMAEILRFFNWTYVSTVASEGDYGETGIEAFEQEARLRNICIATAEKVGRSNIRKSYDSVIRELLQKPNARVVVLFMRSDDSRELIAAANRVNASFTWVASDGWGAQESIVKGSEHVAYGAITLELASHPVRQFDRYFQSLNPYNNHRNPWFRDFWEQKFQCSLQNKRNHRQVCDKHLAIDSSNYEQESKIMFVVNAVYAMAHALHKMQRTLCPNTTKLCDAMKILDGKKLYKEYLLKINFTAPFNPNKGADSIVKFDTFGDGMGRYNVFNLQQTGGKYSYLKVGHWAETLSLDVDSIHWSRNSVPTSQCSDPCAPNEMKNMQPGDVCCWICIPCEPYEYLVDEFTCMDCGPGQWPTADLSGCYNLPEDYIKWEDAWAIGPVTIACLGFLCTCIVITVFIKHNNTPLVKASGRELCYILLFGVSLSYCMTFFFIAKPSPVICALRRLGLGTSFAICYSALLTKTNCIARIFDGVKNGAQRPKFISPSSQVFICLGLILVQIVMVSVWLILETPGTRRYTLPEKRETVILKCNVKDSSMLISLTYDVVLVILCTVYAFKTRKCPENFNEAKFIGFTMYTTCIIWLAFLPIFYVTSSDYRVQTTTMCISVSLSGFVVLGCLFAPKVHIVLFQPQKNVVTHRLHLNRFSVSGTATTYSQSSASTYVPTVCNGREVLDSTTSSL
T1 sequence (P31422 23-879): as above
Sequence of mGluR2 WT/YADA heterodimer (P31421 19-872, stated change not applied): as the sequence (P31421 19-872 Y216A/D295A) above, with A198Y, A277D counted along it
Sequence of mGluR2 WT/YADA heterodimer (P31421 19-872 Y216A/D295A): as the sequence (P31421 19-872 Y216A/D295A) above

- average active state lifetime (mGluR3 [1]): 183 ms
Compound: [Ca+2] [Ca^2+]
- effect on low FRET state occupancy (mGluR3 [1]; 0 glutamate): concentration-dependent increase in low FRET state occupancy

- share of distribution remaining in the high and medium FRET states (mGluR2 [2]; saturating concentrations (≥100 μM)): ~ 30%
Compound: N[C@H](C(=O)O)C1[C@@H](C(=O)O)[C@@H]1C(=O)O (some centres unmarked) [DCG-IV]

Compound: COc1ccccc1Oc1ccc(N(Cc2cccnc2)S(=O)(=O)CC(F)(F)F)cc1 [LY48739, LY487379]
- effect on relative occupancy of the low FRET state (mGluR2 [2]; in the presence of DCG-IV (1 μM)): increased the relative occupancy of the low FRET state
- effect on DCG-IV response in ensemble FRET (mGluR2 [3]): increases the apparent affinity and efficacy of DCG-IV

Compound: N[C@@]1(C(=O)O)CO[C@H]2[C@H](C(=O)O)[C@H]21 [LY379268]
- occupancy of the active (low FRET) state (mGluR2 [2]; saturating agonist, compared with glutamate): more complete occupancy of the active state than glutamate

- maximal medium FRET occupancy (mGluR2 [2]; WT/WT homodimer): ~ 25%
- EC50 (mGluR3 [4]): 500 ± 200 nM
- average active state lifetime (mGluR3 [1]): 183 ms
- occupancy of the medium FRET state [5]: ~ 55%
- effect on the FRET histogram [6]: no effect
Compound: N[C@@H](CCC(=O)O)C(=O)O [glutamate]
